Measurements reported in ChEMBL document CHEMBL1144968, “Novel, highly potent, selective 5-HT2A/D2 receptor antagonists as potential atypical antipsychotics” (Bioorg Med Chem Lett, 2003).
pKi: −log10 of the molar value.

Key:
[1] = biological target: 5-hydroxytryptamine receptor 2A (Homo sapiens, UniProt P28223); assay: Binding affinity towards 5-hydroxytryptamine 2A receptor using [125I]DOI as radioligand.
[2] = biological target: T1, 5-hydroxytryptamine receptor 2C (Homo sapiens, UniProt P28335); assay: Binding affinity towards 5-hydroxytryptamine 2C receptor using [125I]DOI as radioligand.
T1 sequence (P28335 whole entry): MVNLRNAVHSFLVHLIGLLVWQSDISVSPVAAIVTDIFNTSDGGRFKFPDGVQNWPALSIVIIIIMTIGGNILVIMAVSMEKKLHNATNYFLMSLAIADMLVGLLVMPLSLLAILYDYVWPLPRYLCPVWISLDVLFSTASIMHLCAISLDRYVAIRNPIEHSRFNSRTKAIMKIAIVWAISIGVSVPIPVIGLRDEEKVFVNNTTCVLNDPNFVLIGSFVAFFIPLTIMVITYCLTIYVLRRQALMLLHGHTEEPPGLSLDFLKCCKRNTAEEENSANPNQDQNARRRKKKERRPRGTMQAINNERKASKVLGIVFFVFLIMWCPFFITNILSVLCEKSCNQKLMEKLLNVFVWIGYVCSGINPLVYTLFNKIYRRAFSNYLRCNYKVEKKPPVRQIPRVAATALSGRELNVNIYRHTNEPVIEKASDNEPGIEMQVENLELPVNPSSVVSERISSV

[3] = biological target: D(2) dopamine receptor (Homo sapiens, UniProt P14416); assay: Binding affinity towards DA D2 receptor using [3H]N-methyl-spiperone as radioligand.
Chain of D(2) dopamine receptor (P14416 whole entry): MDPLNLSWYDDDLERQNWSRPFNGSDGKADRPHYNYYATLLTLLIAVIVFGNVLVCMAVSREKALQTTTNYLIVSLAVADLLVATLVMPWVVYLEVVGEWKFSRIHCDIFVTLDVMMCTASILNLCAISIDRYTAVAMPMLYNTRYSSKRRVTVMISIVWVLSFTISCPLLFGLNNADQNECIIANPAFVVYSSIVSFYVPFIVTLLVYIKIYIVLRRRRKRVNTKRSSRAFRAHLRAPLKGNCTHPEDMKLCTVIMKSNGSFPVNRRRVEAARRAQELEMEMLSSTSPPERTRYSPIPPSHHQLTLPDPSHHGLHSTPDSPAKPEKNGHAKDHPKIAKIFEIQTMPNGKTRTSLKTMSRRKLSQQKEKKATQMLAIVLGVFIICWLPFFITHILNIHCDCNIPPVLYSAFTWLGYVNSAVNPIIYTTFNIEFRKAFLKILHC

[4] = system: Rattus norvegicus; assay: Inhibition of quipazine induced head twitching after peroral administration in rat.; type: functional; conditions: po
[5] = biological target: Dopamine D2 receptor and serotonin 2a receptor (Homo sapiens) (UniProt P14416+P28223); assay: Selectivity ratio for inhibition of dopamine D2 receptor to that of 5-HT2A receptor.; type: protein assay
Chain of Dopamine D2 receptor and serotonin 2a receptor (Homo sapiens) (P14416 whole entry, looked up): as the sequence (P14416 whole entry) above
Chain of Dopamine D2 receptor and serotonin 2a receptor (Homo sapiens) (P28223 whole entry, looked up): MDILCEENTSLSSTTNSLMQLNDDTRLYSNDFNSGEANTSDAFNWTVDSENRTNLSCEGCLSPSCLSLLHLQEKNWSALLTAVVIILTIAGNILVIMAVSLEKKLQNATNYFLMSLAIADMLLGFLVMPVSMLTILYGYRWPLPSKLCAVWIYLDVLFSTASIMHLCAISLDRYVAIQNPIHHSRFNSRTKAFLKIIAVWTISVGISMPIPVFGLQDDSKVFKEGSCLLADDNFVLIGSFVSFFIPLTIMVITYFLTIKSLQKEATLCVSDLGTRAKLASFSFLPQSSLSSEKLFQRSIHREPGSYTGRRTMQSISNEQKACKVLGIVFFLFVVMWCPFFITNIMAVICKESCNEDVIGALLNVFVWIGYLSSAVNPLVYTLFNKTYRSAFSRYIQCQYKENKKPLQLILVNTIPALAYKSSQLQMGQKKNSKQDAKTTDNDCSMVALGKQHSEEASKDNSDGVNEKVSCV

Chain of 5-hydroxytryptamine receptor 2A (P28223 whole entry): as the sequence (P28223 whole entry, looked up) above

| pKi [1] | pKi [2] | pKi [3] | Ratio [5] | Structure (SMILES) | ED50 [4] [mg/kg] |
| --- | --- | --- | --- | --- | --- |
| 9.30 | 7.28 | 8.28 | 10.2 | Nc1cc(F)ccc1C(=O)CCCN1CC[C@H]2[C@@H](C1)c1cccc3c1N2CCC3 | – |
| 8.12 | 6.17 | 7.85 | 1.8 | Nc1c(F)cccc1C(=O)CCCN1CC[C@H]2[C@@H](C1)c1cccc3c1N2CCCS3 | – |
| 9.40 | 7.09 | 8.57 | – | Nc1cc(F)ccc1C(=O)CCCN1CC[C@H]2[C@@H](C1)c1cccc3c1N2CCCS3 (stereo in doubt; (+)-6) [listing 2 of 2 here] | 0.52 |
| 8.82 | 6.74 | 7.85 | 9.3 | Nc1cc(F)ccc1C(=O)CCCN1CC[C@@H]2[C@H](C1)c1cccc3c1N2CCS3 | – |
| 9.10 | 6.97 | 7.17 | 85 | Nc1ccccc1C(=O)CCCN1CC[C@H]2[C@@H](C1)c1cccc3c1N2CCC3 | – |
| – | – | – | 5.9 | Nc1cc(F)ccc1C(=O)CCCN1CC[C@H]2[C@@H](C1)c1cccc3c1N2CCCS3 (stereo in doubt; 6) [listing 1 of 2 here] | – |
| 8.38 | 6.34 | 8.33 | 1.1 | Nc1cc(F)ccc1C(=O)CCCN1CC[C@@H]2[C@H](C1)c1cccc3c1N2CCCS3 | – |
| 8.43 | 7.03 | 7.20 | 17 | Nc1ccccc1C(=O)CCCN1CC[C@@H]2[C@H](C1)c1cccc3c1N2CCC3 | – |
| 8.12 | 6.19 | 7.74 | 2.4 | CS(=O)(=O)Nc1cc(F)ccc1C(=O)CCCN1CC[C@H]2[C@@H](C1)c1cccc3c1N2CCCS3 | – |
| 8.80 | 6.47 | 7.64 | 14 | Nc1ccccc1C(=O)CCCN1CC[C@H]2[C@@H](C1)c1cccc3c1N2CCO3 | – |
| 9.15 | 6.97 | 8.39 | – | Nc1cc(F)ccc1C(=O)CCCN1CC[C@H]2[C@@H](C1)c1cccc3c1N2CCCS3 (stereo in doubt; 6) [listing 2 of 2 here] | – |
| 8.92 | 7.15 | 7.54 | 24 | Nc1cc(F)ccc1C(=O)CCCN1CC[C@@H]2[C@H](C1)c1cccc3c1N2CCC3 | 1.4 |
| 9.10 | 6.38 | 7.39 | 51 | Nc1ccccc1C(=O)CCCN1CC[C@H]2[C@@H](C1)c1cccc3c1N2CCS3 | – |
| 9.15 | 6.97 | 7.96 | 16 | Nc1ccccc1C(=O)CCCN1CC[C@H]2[C@@H](C1)c1cccc3c1N2CCCC3 | – |
| 7.98 | 6.49 | 8.23 | 0.57 | Nc1ccccc1C(=O)CCCN1CC[C@@H]2[C@H](C1)c1cccc3c1N2CCCS3 | – |
| 7.29 | 6.46 | 7.82 | 0.29 | CCOC(=O)Nc1cc(F)ccc1C(=O)CCCN1CC[C@H]2[C@@H](C1)c1cccc3c1N2CCCS3 | – |
| 8.60 | 6.22 | 8.06 | 3.5 | O=C(CCCN1CC[C@H]2[C@@H](C1)c1cccc3c1N2CCCS3)c1ccc(F)cc1 | 0.86 |
| 9.22 | 6.87 | 8.46 | 5.8 | Nc1cc(F)ccc1C(=O)CCCN1CC[C@H]2[C@@H](C1)c1cccc3c1N2CCCC3 | – |
| 7.05 | 6.59 | 7.30 | 0.56 | Nc1cc(O)ccc1C(=O)CCCN1CC[C@H]2[C@@H](C1)c1cccc3c1N2CCCS3 | – |

The next lines start with the compound.

| Structure (SMILES) | pKi [1] | pKi [2] | pKi [3] | Ratio [5] | ED50 [4] [mg/kg] |
| --- | --- | --- | --- | --- | --- |
| Nc1cc(F)ccc1C(=O)CCCN1CC[C@@H]2[C@H](C1)c1cccc3c1N2CCO3 | 8.55 | 6.18 | 7.80 | 5.7 | 0.03 |
| Nc1cc(F)ccc1C(=O)CCCN1CC[C@H]2[C@@H](C1)c1cccc3c1N2CCO3 | 9.70 | 6.89 | 8.64 | 12 | – |
| Nc1cc(F)ccc1C(=O)CCCN1CC[C@H]2[C@@H](C1)c1cccc3c1N2CCCS3 (stereo in doubt; (+)-6) [listing 1 of 2 here] | – | – | – | 6.8 | – |
| Nc1ccccc1C(=O)CCCN1CC[C@H]2[C@@H](C1)c1cccc3c1N2CCCS3 (stereo in doubt; (+)-4) [listing 1 of 2 here] | 9.22 | 6.76 | 7.82 | – | – |
| Nc1ccccc1C(=O)CCCN1CC[C@@H]2[C@H](C1)c1cccc3c1N2CCS3 | 8.18 | 6.63 | 7.72 | 2.9 | – |
| Nc1ccccc1C(=O)CCCN1CC[C@H]2[C@@H](C1)c1cccc3c1N2CCCS3 (stereo in doubt; 4) [listing 1 of 2 here] | – | – | – | 2.9 | – |
| CNc1ccccc1C(=O)CCCN1CC[C@H]2[C@@H](C1)c1cccc3c1N2CCCS3 | 7.21 | 6.60 | 7.51 | 0.5 | – |
| CC(=O)Nc1cc(F)ccc1C(=O)CCCN1CC[C@H]2[C@@H](C1)c1cccc3c1N2CCCS3 | 9.10 | 6.65 | 8.47 | 4.3 | – |
| Nc1ccc(F)cc1C(=O)CCCN1CC[C@H]2[C@@H](C1)c1cccc3c1N2CCCS3 | 7.82 | 6.59 | 7.82 | 1 | – |
| Nc1ccccc1C(=O)CCCN1CC[C@@H]2[C@H](C1)c1cccc3c1N2CCO3 | 7.92 | 6.30 | 7.22 | 5 | – |
| Nc1cc(F)ccc1C(=O)CCCN1CC[C@@H]2[C@H](C1)c1cccc3c1N2CCCC3 | 9.05 | 6.87 | 7.72 | 21 | – |
| O=CNc1cc(F)ccc1C(=O)CCCN1CC[C@H]2[C@@H](C1)c1cccc3c1N2CCCS3 | 7.05 | 6.59 | 8.11 | 0.09 | – |
| Nc1ccccc1C(=O)CCCN1CC[C@H]2[C@@H](C1)c1cccc3c1N2CCCS3 (stereo in doubt; 4) [listing 2 of 2 here] | 8.68 | 6.70 | 8.22 | – | – |
| Nc1ccccc1C(=O)CCCN1CC[C@H]2[C@@H](C1)c1cccc3c1N2CCCS3 (stereo in doubt; (+)-4) [listing 2 of 2 here] | – | – | – | 25 | – |
| Nc1ccccc1C(=O)CCCN1CC[C@@H]2[C@H](C1)c1cccc3c1N2CCCC3 | 8.51 | 6.83 | 7.70 | 6.5 | – |
| CCNC(=O)Nc1cc(F)ccc1C(=O)CCCN1CC[C@H]2[C@@H](C1)c1cccc3c1N2CCCS3 | 7.96 | 7.32 | 7.59 | 2.3 | – |
| Nc1cc(Br)ccc1C(=O)CCCN1CC[C@H]2[C@@H](C1)c1cccc3c1N2CCCS3 | 7.10 | 6.95 | 8.33 | 0.06 | – |
| Nc1cc(Cl)ccc1C(=O)CCCN1CC[C@H]2[C@@H](C1)c1cccc3c1N2CCCS3 | 7.15 | 6.12 | 8.64 | 0.03 | – |
| O=C(CCCN1CC[C@H]2[C@@H](C1)c1cccc3c1N2CCCS3)c1ccccc1 | 8.57 | 6.38 | 7.77 | 6.3 | – |
| Nc1cc(F)ccc1C(=O)CCCN1CC[C@H]2[C@@H](C1)c1cccc3c1N2CCS3 | 9.52 | 7.05 | 8.40 | 13 | – |
